Earlier results in patent publication US7671073B2, “Cyclohexylalanine derivatives as dipeptidyl peptidase-IV inhibitors for the treatment or prevention of diabetes” (Merck Sharp & Dohme Corp., priority 2004, dated 2010).
Values belong to the molecule of their own block, whether it stands above or below them.

Assays:
[1] = mouse, cyclophosphamide-induced neutropenia; WO 99/56753
[2] = rats; Transplantation, 63: 1495-1500 (1997)
DP-IV = target: T1, DP-IV (Homo sapiens, UniProt P27487)
T1 construct: GRF is rapidly degraded in plasma to GRF[3-44]
T1 sequence (P27487 whole entry): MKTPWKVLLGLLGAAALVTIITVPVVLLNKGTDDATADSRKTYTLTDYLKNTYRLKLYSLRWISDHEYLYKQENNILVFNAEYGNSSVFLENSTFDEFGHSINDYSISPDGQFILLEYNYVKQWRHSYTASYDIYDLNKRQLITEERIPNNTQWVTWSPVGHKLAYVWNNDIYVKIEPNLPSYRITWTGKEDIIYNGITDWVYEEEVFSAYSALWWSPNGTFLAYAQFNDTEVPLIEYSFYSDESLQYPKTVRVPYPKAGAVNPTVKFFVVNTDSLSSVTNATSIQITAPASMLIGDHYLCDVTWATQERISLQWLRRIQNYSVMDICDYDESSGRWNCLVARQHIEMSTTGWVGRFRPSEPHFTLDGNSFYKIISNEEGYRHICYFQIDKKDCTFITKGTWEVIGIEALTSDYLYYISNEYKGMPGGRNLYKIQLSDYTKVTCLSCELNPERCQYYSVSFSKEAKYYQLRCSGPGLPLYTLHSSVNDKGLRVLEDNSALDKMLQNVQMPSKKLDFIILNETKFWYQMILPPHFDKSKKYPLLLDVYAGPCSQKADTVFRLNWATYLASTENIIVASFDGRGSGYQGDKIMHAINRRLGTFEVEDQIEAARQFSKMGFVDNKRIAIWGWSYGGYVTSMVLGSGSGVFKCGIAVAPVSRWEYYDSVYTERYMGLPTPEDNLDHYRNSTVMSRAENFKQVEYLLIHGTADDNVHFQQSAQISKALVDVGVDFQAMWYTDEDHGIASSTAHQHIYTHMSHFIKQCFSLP

Molecule: CC(C)[C@H](N)C(=O)N1CCC[C@H]1B(O)O [Val-Boro-Pro]
hematopoiesis [1]: stimulated hematopoiesis

Molecule: CC(C)N1CCC(c2ccccc2)(c2ccccc2)CC1 [Prodipine, Pro-Pro-diphenyl-phosphonate]
cardiac allograft survival [2]: double cardiac allograft survival in rats from day 7 to day 14

degradation of GRF to GRF[3-44] in plasma (DP-IV): prevented
Molecule: diprotin A
